Row | melting point [°C] | Structure (SMILES)
1 | 74 | Cc1ccc(S(=O)(=O)OCCCc2c[nH]c3ccc(F)cc23)cc1
2 | 108 to 110 | N#CCCn1cnc2ccccc21
3 | 227 to 229 | Cc1cc(C(=O)c2[nH]c3cc(Cl)ccc3c2CC(=O)O)no1
4 | 186 | N#Cc1cc(C(=O)Nc2ccc(F)cn2)nc(C(F)(F)F)c1
5 | 98 to 99 | O=C1NC(=O)C(Cc2ccc(OCCc3nc(-c4ccccc4)oc3CO)cc2)S1 (stereo not given)
6 | 145 to 146 | CN(c1ccc(O)cc1)S(=O)(=O)c1ccc(C(F)(F)F)cc1
7 | 230 to 232 | CON=C1CN(c2nc3c(cc2F)c(=O)c(C(=O)O)cn3-c2ccc(F)cc2F)CC12CN(C(=O)OC(C)(C)C)C2
8 | 38.5 to 39.5 | CCCCS(=O)(=O)c1ncn(C(=O)N(CCC)CCC)n1
9 | 80 to 81 | N[C@@H](C1CCCCC1)C(O)(Cc1ccccc1)Cc1ccccc1
10 | 232 to 235 | S=C1NCC(Cn2cncn2)(c2ccc(Cl)cc2Cl)O1 (stereo not given)
11 | 140 to 143 | CCOc1sc(C)nc1S(=O)(=O)NC(=O)Nc1nc(OC)cc(OC)n1
12 | 172 | NS(=O)(=O)c1ncccc1-c1ccccc1
13 | 167 to 170 | COc1cc(COc2ccc(N)nn2)c2ccccc2c1
14 | 233 to 235 | O=C(Cc1ccc([N+](=O)[O-])cc1C(=O)O)Nc1cccc(/C=C/c2nc(C3CCC3)cs2)c1
15 | 243 to 255 | CC(=O)Nc1cc2c(Nc3ccc(Sc4nccn4C)c(Cl)c3)c(C#N)cnc2cc1N1CCC(N2CCCC2)CC1
16 | 155 to 157 | CN(C(=N)N)c1nccc(Oc2ccc(NC(=O)c3cc(F)cc(N4CCOCC4)c3)c3ccccc23)n1
17 | 177 to 179 | CS(=O)(=O)c1ccc(-c2c(-c3ccccc3)nc3n2CCS3)cc1
18 | 72 to 74 | CCN(CC)C(=S)Oc1cc(Br)cc(Br)c1
19 | 110 to 112 | CC(C)C1CC(=O)C(c2ccccn2)C(=O)C1 (stereo not given)
20 | 246 to 251 | O=C(Nc1ccc(C(F)(F)F)cc1)NC1CCN(S(=O)(=O)c2cccc(C(F)(F)F)c2)CC1
21 | 182 to 183 | CCCCS(=O)(=O)Nc1cc(C(=O)Nc2ccccc2)ccc1OC
22 | 185 to 188 | CN(C(=O)CN(C(=O)CNC(=O)OC(C)(C)C)c1ccccc1O)c1ccccc1
23 | 140 to 142 | COc1cc(OC)c2c(C)c(CCN3CCN(c4ccccc4OC)CC3)c(=O)oc2c1
24 | 172 to 174 | O=C(O)C(=O)CC(=O)c1cccn1Cc1cccc2ccccc12

Row | melting point [°C] | Structure (SMILES)
25 | 169 to 170 | NC(=O)c1cc(Cl)c(Cl)c(Cl)n1
26 | 153 to 154 | CCN(CC)CCNC(=O)c1cc(Cl)c(N)cc1OCC(=O)c1ccccc1
27 | 196 to 197 | COCCNC(=NC#N)Nc1ccc(C2=NNC(=O)CC2C)cc1 (stereo not given)
28 | 115 | COC(=O)CSc1ccc2ccc(Oc3c(Cl)cc(C(F)(F)F)cc3OC)cc2c1
29 | 116 | Clc1cccc(NNc2cccc(Cl)c2)c1
30 | 148 to 149 | N#CC(C(=O)c1cccnc1)c1ccccc1 (stereo not given)
31 | 161 to 162 | Cc1cccc2[nH]c(-c3ccccc3F)nc12
32 | 138 | OCC12CC3CC(CC(C3)C1Br)C2 (stereo not given)
33 | 93 to 96 | CCC(C)(C)c1ccc(OCCCCc2c(O)c(N)c3ccccc3c2C(N)=O)c(C(C)(C)CC)c1
34 | 122 to 124 | COc1ccc(CNC2(Cc3ccccc3)CCC(=O)CC2)cc1
35 | 234 | CC(=O)OCC(=O)C1(O)CCC2C3CCC4=CC(=O)CCC4(C)C3=CCC21C (stereo not given)
36 | 213 to 214 | COc1ccc(-c2c(C(=O)O)c(CSc3nccn3C)nc3cc(OC)c(OC)cc23)cc1OC
37 | 199 to 202 | O=C(O)C=Cc1cccc2nnsc12
38 | 208 to 211 | CC(C)Oc1nccc(-c2c(-c3ccc(F)cc3)ncn2C2CCC(O)CC2)n1 (stereo not given)
39 | 37 to 38 | O=C1CCCN1Cc1ccc(F)cc1
40 | 160 to 161 | COc1ccc(CN2C(=O)c3ccccc3C2=O)cc1OC
41 | 281 to 282 | Cn1c(=O)c(-c2ccc(Cl)cc2Cl)cc2c3cc(-c4ccn[nH]4)ccc3n(C)c21
42 | 182 to 183 | Cc1c(S(=O)(=O)c2ccc(=O)[nH]n2)oc2ccccc12
43 | 306 | O=C(O)Cn1c(=O)[nH]c(=O)c2ccc(Cl)cc21
44 | 166 to 168 | CC(=O)Nc1ccc(OC(=O)C2CCc3c(c4ccccc4n3C(=O)c3ccccc3)C2)cc1 (stereo not given)
45 | 146 to 147 | CC(C)n1nc(-c2sc(C(=O)NC3CC3)nc2-c2cccc(F)c2)ccc1=O
46 | 229 to 230 | CC(C)CC(CP(=O)(O)CNCCc1ccccc1)C(=O)N(c1ccc(-c2ccccc2)cc1)[C@@H](C)C(=O)O (stereo not given in full)
47 | 110 to 113 | CCCCCCCCSc1nc2ccccc2[nH]1
48 | > 250 | O=Cc1ccn(C2=CC3=C(CC2)CCc2[nH]c(=O)c(=O)n(CC(=O)O)c23)c1

Row | melting point [°C] | Structure (SMILES)
49 | 212 to 216 | NC(=O)C1Cc2c([nH]c3ccccc23)CN1 (stereo not given)
50 | 176 to 178 | CC1(C=NO)OCCc2c1[nH]c1ccccc21 (stereo not given)
51 | 178 to 180 | CN1[C@@H](c2ccc(O)cc2)c2ccccc2S1(=O)=O
52 | 124 to 126 | COc1ccc(-c2c(CO)cc(OC)c(OC)c2OC)c(CO)c1OS(C)(=O)=O
53 | 161 to 165 | CC(=O)N1CCn2nc(Nc3cc(-c4ccc5c(c4)NC(=O)C5)cn4ccnc34)cc2C1
54 | 80.5 | CCOCc1ccc(CN(O)C(N)=O)o1
55 | 33 to 35 | Nn1cccc1C(=O)C(F)(F)F
56 | > 300 | COc1cc2nc(-c3cc(C)c(O)c(C)c3)[nH]c(=O)c2cc1OC
57 | 188 to 189 | CC(=O)N(C)c1ccccc1CS(=O)c1nccn1-c1ccccn1 (stereo not given)
58 | 126 to 130 | O=C(O)CCc1cc(OCc2cc(COc3ccc(Cl)cc3Cl)cc(OCc3ccccc3)c2)nn1-c1ccccc1
59 | 161 to 162 | CC(=O)OCC(=O)NNC(=O)c1ccc2occ(-c3cccc(OC(F)(F)F)c3)c2c1
60 | 93.3 to 96.2 | CC(C)(C)c1ccc(C=NOCc2ccc(CC(=O)O)cc2)cc1
61 | 90 to 91 | O=C1c2ccccc2C(=O)N1CCCCCCc1cnc2ccccc2c1
62 | 133 to 135 | Cc1cc(SC2=C(O)CC(CCc3ccc(O)cc3)(C3CCCC3)OC2=O)c(C(C)(C)C)cc1N (stereo not given)
63 | 254 to 255 | CCn1c(=O)c2c(-c3noc(C4CC4)n3)ncn2c2cccnc21
64 | 188 to 191 | NC(=O)C(=C1CSc2ccccc2N1)c1ccc(Cl)cc1
65 | 148 to 149 | COc1ccc(C(C)(O)c2cccc(OCc3nc(-c4ccccc4)oc3C)c2)c(OCC(=O)O)c1 (stereo not given)
66 | 87.5 to 88.5 | CC(C)c1cccc(NC(=O)c2ccccc2C(F)(F)F)c1
67 | 263 to 264 | CS(=O)(=O)c1ccc(-c2coc3ccc(-c4nnc(N)o4)cc23)cc1Cl
68 | 112 to 113 | COc1ccc2c3c(c(=O)oc2c1)CN(CCN1CC2CCC1CC2)CC3
69 | 189 to 190 | CC(C)Cn1c(CNC(=O)OC(C)(C)C)c(-c2cccs2)c2cc(C#N)ccc2c1=O
70 | 30 to 31 | CC[C@@H](O)[C@@H](CCCC(C)=O)OCc1ccccc1
71 | 141 to 142 | CCOC(=O)C(C)(C)c1ccc(C(O)CCCN2CCC(C(O)(c3ccccc3)c3ccccc3)CC2)cc1 (stereo not given)
72 | 200 to 203 | CCN(CC)C(=O)c1ccnc(Br)c1

Row | melting point [°C] | Structure (SMILES)
73 | 144 to 146 | CC1(C)CCC(C)(C)c2cc(C(=O)Nc3ccccc3)ccc21
74 | 67 to 69 | O=C1CC(c2c(-c3ccc[nH]3)[nH]c3ccccc23)C(=O)N1 (stereo not given)
75 | 90 to 96 | Cc1ccc(Cc2cnc(NCCCN(Cc3ccccc3)c3ccccn3)[nH]c2=O)cn1
76 | 210 to 212 | O=C1N(Cc2ncccn2)c2ccccc2C12COc1cc3c(cc12)OCCO3 (stereo not given)
77 | 183 to 185 | Cc1cc(C)cc(NC(=O)Cc2ccc(O)cc2)c1
78 | > 270 | O=C1c2ccccc2C(Cc2ccncc2)(Cc2ccncc2)C(=O)N1c1ccccc1
79 | 181 to 183 | CC(=O)Nc1cccc(-n2ccnc2)c1
80 | 206 to 208 | CC1(C)OC(=S)Nc2ccc(-c3cc(Cl)cc(Cl)c3)cc21
81 | 134 | CC(C)(C)NC(=O)c1ccc(S(=O)(=O)N2C(=O)C(C)(c3ccccc3Cl)c3cc(OCC(F)(F)F)ccc32)cc1 (stereo not given)
82 | 152 to 153 | O=C(c1ccccc1CBr)c1ccc(Cl)cc1CBr
83 | 159 | CNC(=S)C1(c2cnc3ccccc3c2)CCCS1 (stereo not given)
84 | 110 to 112 | CCCc1nc(NCc2ccco2)nc(Nc2cccc(C(F)(F)F)c2)n1
85 | 198 | O=c1c2ccccc2[nH]c(=S)n1CCN1CCC(Nc2nc3ccccc3n2Cc2ccc(F)cc2)CC1
86 | 148 to 149 | COc1cc(OC)nc(C2OC(=O)c3c(Cl)cccc32)n1 (stereo not given)
87 | 178 to 179 | O=C(Nc1cccnc1)N1CCN(c2cc(-c3ccccc3F)ncn2)CC1
88 | 134 to 135 | Cn1c(C(F)(F)F)cc(=O)n(-c2ccc(OCc3ccc(Cl)cc3)cc2F)c1=O
89 | 143 to 145 | Cc1c(CC(=O)O)c2cc(O)ccc2n1C(=O)c1ccc(F)c(F)c1
90 | 171 to 172 | COC(=O)C1=NN(c2ccccc2)C(C(=O)OC)=NN1c1ccccc1
91 | 178 to 183 | CC(=O)OC=C1CSC2C(NC(=O)Cc3ccccc3)C(=O)N2C1C(=O)OC(C)(C)C (stereo not given)
92 | 110 to 112 | N#CCCSN1C(=O)CCC1=O
93 | 148 to 149 | C(=C\c1nc(COc2ccc(CCCCn3cnc4ccccc43)cc2)co1)/c1ccccc1
94 | 74 to 75.5 | COc1ccc2sc(C(=O)OCC(C)(C)C(=O)C(C)(C)C)cc2c1
95 | 95 | CCCCCCCCCCCCCCCCCCSc1ccc(O)cc1

Row | Structure (SMILES) | melting point [°C]
96 | FC(F)COc1cc(NC2=NCC3(CN4CCC3CC4)O2)ncn1 (stereo not given) | 83 to 88
97 | CC1(O)CCC2(C)C(CCC3C2CCC2(C)C3CCC2[N+](=O)[O-])C1 (stereo not given) | 211 to 213
98 | O=C(CSCc1ccccc1)CS(=O)(=O)C(c1ccc(Cl)cc1)c1ccc(Cl)cc1 | 108 to 110
99 | CN1C(=O)C(NC(=O)c2cc3ccccc3[nH]2)C(=O)N(c2ccccc2)c2cc(Cl)ccc21 (stereo not given) | 280
100 | O=C(OC1c2nccnc2C(=O)N1c1ccc2ccc(Cl)nc2n1)N1CCCCC1 (stereo not given) | 249

Source: a melting point compilation (Tetko et al.; mined from patent text by program, amines drawn as free bases though some values may be those of a salt)
